Measured values reported in PubChem BioAssay (NCI).
“And” between values parts separate entries of the source, which are not always exact repeats. Identical values can stand only once.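 96-well plates; 48 h exposure; 5 concentrations. Endpoints by linear interpolation between flanking doses. Not reached: highest tested concentration assigned. GI50 = concentration required for 50% inhibition of growth. TGI denotes the concentration required for complete inhibition of growth.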

Assays:
Test in all cases: DTP human tumour cell line panel, 48 h
ACHN renal = test system: ACHN renal
CCRF-CEM leukemia = test system: CCRF-CEM leukemia
COLO 205 colon = test system: COLO 205 colon
HS 578T breast = test system: HS 578T breast
OVCAR-8 ovarian = test system: OVCAR-8 ovarian
PC-3 prostate = test system: PC-3 prostate
SK-MEL-2 melanoma = test system: SK-MEL-2 melanoma
SR leukemia = test system: SR leukemia
U251 CNS = test system: U251 CNS
UACC-62 melanoma = test system: UACC-62 melanoma

Row | Compound | GI50 (ACHN renal) | TGI (ACHN renal) | GI50 (CCRF-CEM leukemia) | TGI (CCRF-CEM leukemia) [µM] | GI50 (COLO 205 colon) | TGI (COLO 205 colon) | GI50 (HS 578T breast) | TGI (HS 578T breast) [µM] | GI50 (OVCAR-8 ovarian) | TGI (OVCAR-8 ovarian) | GI50 (PC-3 prostate) | TGI (PC-3 prostate) | GI50 (SK-MEL-2 melanoma) | TGI (SK-MEL-2 melanoma) | GI50 (SR leukemia) | TGI (SR leukemia) | GI50 (U251 CNS) [µM] | TGI (U251 CNS) [µM] | GI50 (UACC-62 melanoma) | TGI (UACC-62 melanoma)
1 | Oc1ccc(NC(=S)Nc2ccccc2)cc1 | > 100 µM | > 100 µM | > 100 µM | > 100 | > 100 µM | > 100 µM | > 100 µM | > 100 | > 100 µM | > 100 µM | > 100 µM | > 100 µM | > 100 µM | > 100 µM | > 100 µM | > 100 µM | > 100 | > 100 | > 100 µM | > 100 µM
2 | C[C@@H](Nc1nc(N[C@H](C)C(F)(F)F)nc(-c2cccc(Cl)n2)n1)C(F)(F)F | 36.4 µM | > 100 µM | > 100 µM | > 100 | > 100 µM | > 100 µM | 26 µM | > 100 | 31.3 µM | > 100 µM | 45.4 µM | > 100 µM | 25.6 µM | > 100 µM | > 100 µM | > 100 µM | 20.8 | 54 | – | –
3 | COc1cc2c(Oc3ccc(NC(=O)C4(C(=O)Nc5ccc(F)cc5)CC4)cc3F)ccnc2cc1OCCCN1CCOCC1 | 0.558 µM and 0.702 µM | 2.33 µM and 3.27 µM | 0.531 µM and 0.383 µM | – | 0.281 µM and 0.308 µM | 0.641 µM and 0.934 µM | 2.06 µM and 0.387 µM | – | 1.42 µM and 2.08 µM | 4 µM and > 10 µM | 1.9 µM and 1.23 µM | 14.5 µM and > 10 µM | 1.44 µM and 1.63 µM | 2.93 µM and 3.74 µM | 0.932 µM and 0.583 µM | 3.45 µM and 2.78 µM | 1.42 | 3.32 | 1.24 µM and 0.891 µM | 2.72 µM and 2.48 µM
4 | COc1ccc(-n2cc(-c3cc(OC)c(OC)c(OC)c3)nc2SCc2ccc(Cl)cc2)cc1OC | > 100 µM | > 100 µM | > 100 µM | > 100 | > 100 µM | > 100 µM | 66.5 µM | > 100 | > 100 µM | > 100 µM | 35.3 µM | > 100 µM | > 100 µM | > 100 µM | > 100 µM | > 100 µM | > 100 | > 100 | 35.5 µM | > 100 µM
5 | CC[C@@]1(O)C(=O)OCc2c1cc1n(c2=O)Cc2cc3cc(Cl)ccc3nc2-1 | 0.00228 µM | 0.0107 µM | – | > 100 | 0.02 µM and 0.0458 µM | 1.41 µM and 1.47 µM | 0.445 µM | – | 0.00117 µM and 0.0112 µM | 0.109 µM and 0.203 µM | 0.0427 µM | – | 0.169 µM and 0.187 µM | 0.677 µM and 0.691 µM | 0.00232 µM and 0.0143 µM | – | 0.00197 | 0.0234 | 0.00183 µM | –
6 | Cc1cc(=O)oc2c(C3=NN(C=O)C(c4ccccc4)C3)c(O)ccc12 (stereo unspecified) | – | > 42.8 µM | – | > 100 | – | > 81.1 µM | – | > 93.2 | – | > 100 µM | – | > 100 µM | – | > 100 µM | – | > 100 µM | – | > 100 | – | > 100 µM
7 | C[C@H]1CCC/C=C/C2CC(OC(=O)CN(C)C)CC2C(OC(=O)CN(C)C)/C=C/C(=O)O1 (stereo partly specified) | 0.398 µM | 11.9 µM | 0.647 µM | > 40.6 | 0.246 µM | 3.6 µM | 30.1 µM | > 100 | 0.308 µM | > 22.9 µM | 0.261 µM | > 100 µM | 0.224 µM | 3.79 µM | 0.38 µM | 10.1 µM | 0.861 | 46.8 | 0.443 µM | > 65.4 µM
8 | C=CC(=O)N[C@@H]1CN(c2nc(Nc3cn(C)nc3OC)c3ncn(C)c3n2)C[C@H]1F | 0.506 µM | > 100 µM | 39.4 µM | > 100 | 17.6 µM | 48.6 µM | 34 µM | > 100 | 33.6 µM | > 100 µM | 60.1 µM | > 100 µM | 26.1 µM | 78.3 µM | 7.57 µM | > 91.3 µM | 39.1 | > 100 | 23.1 µM | > 90.6 µM
9 | Cc1cccc2c(C3=C(c4cn(C)c5ccccc45)C(=O)NC3=O)cn(C)c12 | 13.1 µM | > 25 µM | > 18 µM | > 25 | > 16.9 µM | > 25 µM | 2.83 µM | 17.3 | 12.2 µM | > 25 µM | 18.9 µM | > 25 µM | 24.3 µM | > 25 µM | 4.88 µM | > 25 µM | > 25 | > 25 | > 25 µM | > 25 µM
10 | CC1(C)OB(c2ccc(N(CCOS(C)(=O)=O)CCOS(C)(=O)=O)cc2)OC1(C)C | 3 µM | 14.2 µM | 1.98 µM | > 39.6 | 24.1 µM | > 100 µM | 32.3 µM | > 87 | 21.7 µM | > 92.3 µM | 15.6 µM | > 79.7 µM | 28.6 µM | > 79.1 µM | 0.0234 µM | 1.02 µM | 8.66 | 34.7 | 13 µM | 33 µM
11 | Cc1cc(F)c(C(=O)Nc2cccc(-c3nncn3C(C)C)n2)cc1-n1cnc(C2CC2)c1 | 10.4 µM | 27.7 µM | 21 µM | > 100 | 4.2 µM | 21.3 µM | 26.6 µM | > 100 | 18.3 µM | 68 µM | 16.6 µM | 92.4 µM | 23.9 µM | 58.1 µM | 4.42 µM | > 100 µM | 17.1 | > 100 | 14.1 µM | 48 µM
12 | Nc1n[n+]([O-])c2cc([N+](=O)[O-])ccc2[n+]1[O-] | – | 14.4 µM | – | 9.74 | – | 19 µM | – | 44 | – | 20.5 µM | – | > 100 µM | – | 36.3 µM | – | 18.4 µM | – | 18.5 | – | 9.84 µM
13 | N#Cc1ncc(C(Cl)Cl)nc1Cl | – | 4.32 µM | – | > 6.15 | – | 3.3 µM | – | > 10 | – | 5.16 µM | – | 3.62 µM | – | 4.33 µM | – | > 5.84 µM | – | 3.78 | – | 5.9 µM
